Measurements published in patent US7713994B2 (Wyeth LLC, priority 2005, dated 2010).
Like-named read-outs stand apart in the source and are kept apart here.

Columns and labels:
cyclin D1/cdk 4 enzyme = target: T1, cyclin D1/cdk 4 enzyme (Homo sapiens, UniProt P11802); assay: CDK4 ELISA kinase assay (phospho-Rb ser 795 detection); type: biochemical; conditions: 200 μM ATP
T1 construct: made in house; host or cells: Sf9 insect cells, recombinant baculovirus
How it was run: (§1)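 Wells were coated overnight with GST-Rb C-terminal fragment, then blocked. Compound (10 ug/ml final) and cyclin/CDK enzyme from baculovirus-infected Sf9 cells with 200 μM ATP reacted 1 h at 30° C. Ser795 phosphorylation was detected by ELISA at 450 nm.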

cyclin E/CDK2 enzyme = target: T2, cyclin E/CDK2 enzyme (Homo sapiens, UniProt P24941); assay: CDK2 ELISA kinase assay (phospho-Rb ser 795 detection); type: biochemical
T2 construct: made in house; host or cells: Sf9 insect cells, recombinant baculovirus
How it was run: as §1

cyclin B/CDK1 enzyme = target: T3, cyclin B/CDK1 enzyme (Homo sapiens, UniProt P06493); assay: CDK1 ELISA kinase assay (phospho-Rb ser 795 detection); type: biochemical
T3 construct: purchased New England BioLabs; host or cells: Sf9 insect cells, recombinant baculovirus
T3 sequence (P06493 whole entry): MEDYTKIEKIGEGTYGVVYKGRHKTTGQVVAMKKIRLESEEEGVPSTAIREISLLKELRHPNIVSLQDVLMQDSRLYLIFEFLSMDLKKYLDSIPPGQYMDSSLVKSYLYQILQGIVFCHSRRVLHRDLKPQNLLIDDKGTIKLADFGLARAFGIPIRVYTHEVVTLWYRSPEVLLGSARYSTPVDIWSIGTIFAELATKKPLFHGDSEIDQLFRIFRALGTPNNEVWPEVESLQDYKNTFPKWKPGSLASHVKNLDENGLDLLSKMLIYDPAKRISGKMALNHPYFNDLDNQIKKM
T3 sequence (P14635 whole entry partner): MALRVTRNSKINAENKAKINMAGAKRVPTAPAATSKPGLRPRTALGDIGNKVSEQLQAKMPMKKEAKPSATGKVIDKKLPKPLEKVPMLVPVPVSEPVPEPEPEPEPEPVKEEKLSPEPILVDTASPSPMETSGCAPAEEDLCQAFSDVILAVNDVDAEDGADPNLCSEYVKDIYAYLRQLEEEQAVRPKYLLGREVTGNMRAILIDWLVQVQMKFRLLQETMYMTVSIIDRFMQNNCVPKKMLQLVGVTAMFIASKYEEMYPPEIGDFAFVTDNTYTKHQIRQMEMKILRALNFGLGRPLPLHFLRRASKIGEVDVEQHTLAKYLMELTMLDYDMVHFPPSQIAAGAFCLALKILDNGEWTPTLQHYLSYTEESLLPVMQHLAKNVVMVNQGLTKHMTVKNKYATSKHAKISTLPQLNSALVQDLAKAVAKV
How it was run: as §1

LoVo = assay: Cytotoxicity assay (SRB), LoVo; type: cell-based; conditions: Homo sapiens, LoVo, 72 h, read-out: In Vitro Cellular Activity IC50 LOVO
How it was run: (§2)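 Cells were seeded overnight in RPMI 1640 with 5% FBS at 37 °C, 7% CO2 (12000/well BT474, 4000 HCT-116, 6000 LoVo, 6000 MCF-7), then exposed to compound dilutions for 3 days (6 days for BT474). Survival versus untreated controls was measured by TCA fixation and SRB staining at 540 nm.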

BT474 = assay: Cytotoxicity assay (SRB), BT474; type: cell-based; conditions: Homo sapiens, BT-474, 144 h, read-out: In Vitro Cellular Activity IC50 BT474
How it was run: as §2

HCT-116 = assay: Cytotoxicity assay (SRB), HCT-116; type: cell-based; conditions: Homo sapiens, HCT-116, 72 h, read-out: In Vitro Cellular Activity IC50 HCT116
How it was run: as §2

MCF-7 = assay: Cytotoxicity assay (SRB), MCF-7; type: cell-based; conditions: Homo sapiens, MCF7, 72 h, read-out: In Vitro Cellular Activity IC50 MCF-7
How it was run: as §2

[1] = In Vitro Enzyme Assays, read-out: CDK4 IC50
[2] = In Vitro Enzyme Assays, read-out: CDK2 IC50
[3] = In Vitro Enzyme Assays, read-out: CDK1 IC50
[4] = In Vitro Enzyme Assay, cyclin E/CDK2, read-out: CDK2 IC50

T1 sequence (P11802 whole entry, species assumed): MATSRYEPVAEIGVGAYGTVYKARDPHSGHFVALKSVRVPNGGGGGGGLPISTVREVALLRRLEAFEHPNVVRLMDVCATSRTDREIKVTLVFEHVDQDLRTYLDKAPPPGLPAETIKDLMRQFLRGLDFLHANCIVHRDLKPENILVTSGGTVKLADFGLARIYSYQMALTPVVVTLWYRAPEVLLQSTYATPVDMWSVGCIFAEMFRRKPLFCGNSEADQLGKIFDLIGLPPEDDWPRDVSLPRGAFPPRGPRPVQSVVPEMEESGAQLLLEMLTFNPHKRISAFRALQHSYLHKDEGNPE
T1 sequence (P24385 whole entry partner, species assumed): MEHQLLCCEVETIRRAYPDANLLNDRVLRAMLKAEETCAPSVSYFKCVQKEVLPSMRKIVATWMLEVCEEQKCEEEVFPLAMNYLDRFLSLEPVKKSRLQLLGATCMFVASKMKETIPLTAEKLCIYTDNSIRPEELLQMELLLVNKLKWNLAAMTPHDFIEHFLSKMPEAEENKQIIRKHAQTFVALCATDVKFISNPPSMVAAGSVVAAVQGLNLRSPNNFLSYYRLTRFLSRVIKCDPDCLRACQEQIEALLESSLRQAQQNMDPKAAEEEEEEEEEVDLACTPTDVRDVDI

Row | Compound | melting point | IC50 (cyclin D1/cdk 4 enzyme; [1]) [µM] | IC50 (cyclin E/CDK2 enzyme; [2]) [µM] | IC50 (cyclin B/CDK1 enzyme; [3]) [µM] | IC50 (LoVo; LoVo cells, SRB, three days) [µM] | IC50 (BT474; BT474 cells, SRB, 6 days) [µM] | IC50 (HCT-116; HCT116 cells, SRB, three days) [µM] | IC50 (MCF-7; MCF-7 cells, SRB, three days) [µM] | other results
1 | COc1cc2c(cc1OC)/C(=C/Nc1ccc(N3CCN(C)CC3)cc1)C(=O)NC2=O [Example 37, (4Z)-6,7-Dimethoxy-4-({[4-(-methylpiperazin-1-yl)phenyl}amino)methylene] isoquinolin-1,3(2H,4H)-dione] | 273 to 274 °C | 14.8 | > 50 | > 50 |  |  |  |  | 
2 | CC(=O)Nc1ccc2c(c1)/C(=C/Nc1ccc(CN3CCCCC3)cc1)C(=O)NC2=O [Example 48] | > 320 °C |  | 8.1 | > 50 |  |  |  |  | 
3 | O=C1NC(=O)c2ccc(Br)cc2/C1=C/Nc1ccc(O)c(C(=O)O)c1 [Example 58, 5-{[(Z)-(6-Bromo-1,3-dioxo-2,3-dihydroisoquinolin-4(1H)-ylidene)methyl]amino}-2-hydroxybenzoic acid] | 336 to 337 °C | 12.4 | 19.4 | 31.8 |  |  |  |  | 
4 | O=C1NC(=O)c2ccc(Br)cc2/C1=C/NCc1ccc(O)cc1 [Example 62] | 296 to 297 °C | 31.1 | 4.5 | > 50 |  |  |  |  | 
5 | CN1CCN(c2ccc(N/C=C3\C(=O)NC(=O)c4ccc(C(=O)N(C)C)cc43)cc2)CC1 [Example 65, (4Z)-N,N-Dimethyl-4-({[4-(4-methylpiperazin-1-yl)phenyl]amino}methylene)-1,3-dioxo-1,2,3,4-tetrahydroisoquinoline-6-carboxamide] | > 300 °C | 41 | 47 | > 50 |  |  |  |  | 
6 | COc1ccc2c(c1)C(=CNc1ccc(CN3CCCCC3)cc1)C(=O)NC2=O [Example 91, 6-Methoxy-4-[(4-piperidin-1-ylmethyl-phenylamino)-methylene]-4H-isoquinoline-1,3-dione] | 272 to 275 °C (dec.) | 2 |  | > 50 | 37 | 40 | 27 | 16 | 
7 | COc1ccc(CN/C=C2\C(=O)NC(=O)c3ccc(-c4ccoc4)cc32)cc1O [Example 92] | 254 to 255 °C | < 0.005 |  | 2.5 | 3.2 | 2 | 2.5 | 3.8 | 
8 | O=C1NC(=O)c2ccc(-c3cccc(O)c3)cc2/C1=C/Nc1ccc(CN2CCCCC2)cc1 [Example 96] | 235 to 236 °C | 0.027 |  | > 50 | 1.8 | 3.4 | 1.3 | 2 | 
9 | CCN(CC)C(=O)Oc1cc(CN/C=C2\C(=O)NC(=O)c3ccc(I)cc32)ccc1OC [Example 99, 5-({[(Z)-(6-Iodo-1,3-dioxo-2,3-dihydroisoquinolin-4(1H)-ylidene)methyl]amino}methyl)-2-methoxyphenyl diethylcarbamate] | 128 to 130 °C |  |  |  |  |  |  |  | IC50 (cyclin D1/cdk 4 enzyme; CDK4 IC50, In Vitro Enzyme Assays): 1.4 µM; IC50 (cyclin E/CDK2 enzyme; CDK2 IC50, In Vitro Enzyme Assays): > 50 µM; IC50 (cyclin B/CDK1 enzyme; CDK1 IC50, In Vitro Enzyme Assays): > 50 µM
10 | O=C1NC(=O)c2ccc(-c3cccnc3)cc2/C1=C/Nc1ccc(CN2CCCCC2)cc1 [Example 102] | 247 to 248 °C | 0.13 |  | > 50 | 43.3 | > 50 | 11.5 | > 50 | 
11 | O=C1NC(=O)c2ccc(N3CCOCC3)cc2/C1=C/Nc1ccc(CN2CCCCC2)cc1 [Example 120, (4Z)-6-Morpholin-4-yl-4-({[4-(piperidin-1-ylmethyl)phenyl]amino}methylene)isoquinoline-1,3(2H,4H)-dione] | 216 to 217 °C | 0.92 |  | > 50 | 7.7 | 8 | 4.3 | 21 | 
12 | CN1CCN(c2ccc3c(c2)/C(=C/Nc2ccc(CN4CCCCC4)cc2)C(=O)NC3=O)CC1 [Example 123] | 192 to 193 °C | 34.7 |  | > 50 | 4.4 | 9.4 | 3.4 | 7.2 | 
13 | CC(=O)Nc1ccc(CN/C=C2\C(=O)NC(=O)c3ccc(Br)cc32)cc1O [Example 142, N-[4-({[(Z)-(6-Bromo-1,3-dioxo-2,3-dihydroisoquinolin-4(1H)-′ylidene)methyl]amino}methyl)-2-hydroxyphenyl]acetamide] | 252 to 253 °C | 0.02 |  | > 50 | 2 | 0.66 | 1.2 | 31.1 | 
14 | O=C1NC(=O)c2ccc(Br)cc2C1=CNc1ccc(-c2c[nH]cn2)cc1 [Example 164, 6-Bromo-4-{[4-(1H-imidazol-4-yl)-phenylamino]-methylene}-4H-isoquinolin-1,3-dione] | > 300 °C (dec.) | 43.4 | 11 | > 50 |  |  |  |  | 
15 | CCCOc1ccc(CN/C=C2\C(=O)NC(=O)c3ccc(NC(=O)c4ccco4)cc32)cc1O [Example 197] | 233 to 234 °C | 12.3 | > 50 | > 50 |  |  |  |  | 
16 | CC1CN(c2ccc(N/C=C3\C(=O)NC(=O)c4ccc([N+](=O)[O-])cc43)cc2)CC(C)N1 (stereo not shown) [Example 235, (4Z)-4-({[4-(3,5-Dimethylpiperazin-1-yl)phenyl]amino}methylene)-6-nitroisoquinoline-1,3(2H,4H)-dione] | > 300 °C | 17.3 |  | 25.3 | 3.5 | 3 | 1.4 | 3.3 | 
17 | O=C1NC(=O)c2ccc(-c3ccc(F)cc3)cc2/C1=C/Nc1ccc(CN2CCCCC2)cc1 [Example 251, (4Z)-6-(4-Fluorophenyl)-4-({[4-(piperidin-1-′ylmethyl)phenyl]amino}methylene)isoquinoline-1,3(2H,4H)-dione] | 195 to 196 °C | 0.31 |  | > 50 | 1.7 | 1.1 | 1 | 0.55 | 
18 | CC(N)(C(=O)O)c1ccc(NC=C2C(=O)NC(=O)c3ccc(Br)cc32)cc1 (stereo not shown) [Example 277, 2-Amino-2-{4-[(6-bromo-1,3-dioxo-2,3-dihydro-1H-isoquinolin-4-ylidenemethyl)-amino]-phenyl}-propionic acid] | 250 to 253 °C | 35.5 | 39.7 | > 50 |  |  |  |  | 
19 | O=C(O)CCCN/C=C1\C(=O)NC(=O)c2ccc(Br)cc21 [Example 314, (Z)-4-((6-Bromo-1,3-dioxo-2,3-dihydroisoquinolin-4(1H)-ylidene)methylamino)butanoic acid] | 260 to 262 °C (dec.) | 1.5 | 37.1 | > 50 |  |  |  |  | 
20 | O=C(O)CCCN/C=C1\C(=O)NC(=O)c2ccc(-n3cccc3)cc21 [Example 315, (Z)-4-((1,3-Dioxo-6-(1H-pyrrol-1-yl)-2,3-dihydroisoquinolin-4(1H)-ylidene)methylamino)butanoic acid] | 230 to 240 °C (dec.) | 0.19 | 31 | 43.4 |  |  |  |  | 
21 | CC(C)(C)c1ccc2c(c1)/C(=C/NCc1cc(O)c(-c3ccoc3)cn1)C(=O)NC2=O [Example 532, 6-tert-Butyl-4-{[(5-furan-3-yl-4-hydroxy-pyridin-2-ylmethyl)-amino]-methylene}-4H-isoquinoline-1,3-dione] | 215 to 230 °C (dec.) |  |  |  |  |  |  |  | IC50 (LoVo): 0.27 µM; IC50 (BT474): 0.1 µM; IC50 (cyclin E/CDK2 enzyme; [4]): 1.9 µM; IC50 (HCT-116): 0.48 µM; IC50 (MCF-7): 1.4 µM
22 | O=C1NC(=O)c2ccc(C3CCCC3)cc2/C1=C/NCc1cc(O)c(-c2ccoc2)cn1 [Example 537] | 279 to 283 °C (dec.) |  |  |  |  |  |  |  | IC50 (LoVo): 0.3 µM; IC50 (BT474): 0.13 µM; IC50 (cyclin E/CDK2 enzyme; [4]): 1.3 µM; IC50 (HCT-116): 0.81 µM; IC50 (MCF-7): 0.83 µM
